Reference: patent US7618787B2, “Method of screening compound capable of accelerating or inhibiting apoptosis, apoptosis accelarator and apoptosis inhibitor” (Hisamitsu Pharmaceutical Co., Inc., priority 2004, dated 2009)

How the values were obtained:
[1] = system: U2OS cells; assay: RT-PCR analysis of RNA from U2OS cells treated with cisplatin; format: cell-based, human
Protocol: Total RNA was extracted from U2OS cells exposed to cisplatin (final concentration: 20 μM) by use of RNeasy Mini Kit (Qiagen) according to the manufacturer's protocol. Reverse transcription reaction was performed by mixing the total RNA (5 μg) with SuperScript II reverse transcriptase (Invitrogen) and random primers and incubating the mixture at 42° C. for 1 hour. After the completion of the reaction, cDNA was diluted with water and amplified with 15 μL of reaction solution (which contained 100 μM of each deoxynucleoside triphosphate, 1×PCR buffer, 1 μM of each primer, and 0.2 units of rTaq DNA polymerase (Takara Bio)). GAPDH expression was assayed and used as an internal standard. The PCR amplification products were separated by electrophoresis with 1.5% agarose gel in TAE buffer (40 mM Tris-Cl, 1 mM EDTA) and visualized with ethidium bromide (post-staining).

[2] = system: U2OS cells; assay: Immunoblot of cell lysates of U2OS cells treated with cisplatin; format: cell-based, human
Protocol: Cells were transiently transfected with a total of 2 μg of expression plasmids. After 48 hours of the transfection, the cells were washed with ice-cold PBS and suspended in lysis buffer (pH 8.0; which contained 25 mM Tris-Cl, 137 mM sodium chloride, 1% Triton X-100, 1 mM phenylmethylsulfonyl fluoride (PMSF), and protease inhibitor mix (Roche Molecular Biochemicals)), followed by brief sonication. After centrifugation at 15000 rpm for 10 minutes, the supernatant was collected and assayed for protein concentrations by the Bradford assay (Bio-Rad). Equal amounts of lysates (protein amount: 50 μg) from the whole cells were denatured by boiling in Laemmli SDS-sample buffer, then separated on 10% SDS-polyacrylamide gel (SDS-PAGE), and transferred at room temperature for 1 hour to polyvinylidene difluoride (PVDF) membranes (Immobilon-P; Millipore) in Tris-glycine buffer containing 10% methanol. The membranes were blocked at room temperature for 1 hour with Tris-buffered saline (TBS-T) containing 5% skim milk and 0.1% Tween 20. Then, the membranes were reacted with an anti-FLAG monoclonal (M2; Sigma), anti-HA monoclonal (12CA5; Roche Molecular Biochemicals), anti-p73 monoclonal (Ab-4; NeoMarkers), anti-p53 monoclonal (DO-1; Oncogene Research Products), anti-Bax monoclonal (6A7; eBioscience), anti-IKK-α polyclonal (M-280; Santa Cruz Biotechnology), anti-IKK-β polyclonal (H-470; Santa Cruz Biotechnology), anti-IKK-γ polyclonal (FL-417; Santa Cruz Biotechnology), anti-p65 polyclonal (C-20; Santa Cruz Biotechnology), anti-IκB-α polyclonal (C-21; Santa Cruz Biotechnology), anti-actin polyclonal (20-33, Sigma), or anti p21^WAF1 polyclonal (H-164; Santa Cruz Biotechnology) antibody used as a primary antibody. After the reaction with the primary antibody, the membranes were reacted at room temperature for 1 hour with a horseradish peroxidase (HRP)-labeled goat anti-mouse or anti-rabbit secondary antibody (Cell Signaling Technologies) diluted 2000-fold in TBS-T. Immunoreactive proteins were finally visualized by use of an enhanced chemiluminescence system (ECL; Amersham Pharmacia Biotech) according to the manufacturer's instruction.

[3] = system: NF-κB; assay: NF-κB reporter luciferase assay in U2OS cells; format: cell-based, human; details: U2OS cells transfected with NF-κB reporter plasmid (FIG. 7)
Protocol: (§1) As described above, the amount of nuclear transactivating p65 subunit was not changed in U2OS cells treated with cisplatin. […] U2OS cells transfected with a NF-κB reporter plasmid were treated with cisplatin and assayed for their luciferase activities. […] L929 cells have been used widely for examining the TNF-α-dependent activation of NF-κB.

[4] = system: U2OS cells; assay: Cell survival assay (MTT) of cisplatin-exposed cells; format: cell-based, human; details: cisplatin 20 μM, time course (FIG. 1)
Protocol: U2OS cells were seeded at a density of 5×10^3 cells/well to a 96-well tissue culture dish supplemented with 100 μL of complete medium, and then allowed to adhere thereto overnight. A cisplatin stock solution was filtered and sterilized with a filter of 0.45 μm in pore size and diluted with phosphate-buffered saline (PBS). Cisplatin was added at the final concentration of 20 μM to the cultures, followed by cell viability assay. The viability was assayed by a modified 3-(4,5-dimethylthiazol-2-yl)-2,5-diphenyl-tetrazolium bromide (MTT) assay at given time points after the cisplatin addition. The MTT assay was performed by adding 10 μL of MTT solution to each well and incubating the cultures at 37° C. for 1 hour. A microplate reader (Model 450; Bio-Rad) was used to measure the absorbance of each well at 570 nm.

[5] = system: U2OS cells; assay: Immunoblot of nuclear and cytoplasmic fractions of U2OS cells treated with cisplatin; format: cell-based, human
Protocol: To prepare nuclear and cytoplasmic extracts, cells were washed with ice-cold PBS and suspended in lysis buffer (pH 7.5; which contained 10 mM Tris-Cl, 1 mM EDTA, 0.5% Nonidet P-40 (NP-40), 1 mM PMSF, and protease inhibitor mix (Sigma)). The suspended cells were incubated at 4° C. for 30 minutes and centrifuged at 5000 rpm for 10 minutes to collect soluble fractions (which were used as cytoplasmic extracts). Insoluble fractions were washed with lysis buffer and dissolved in 1×Laemmli SDS-sample buffer (pH 6.8; which contained 62.5 mM Tris-Cl, 2% SDS, 2% β-mercaptoethanol, and 0.01% bromophenol blue) to collect nuclear extracts. The nuclear and cytoplasmic fractions were subjected to immunoblot analysis using an anti-lamin B monoclonal (Ab-1; Oncogene Research Products) or anti-α-tubulin monoclonal (DM1A; Cell Signaling Technology) antibody. Nuclear and cytoplasmic extracts were prepared from cisplatin-exposed or untreated U2OS cells and subjected to immunoblot with a given antibody. The purity of the nuclear and cytoplasmic fractions was confirmed by immunoblot using anti-lamin B and anti-α-tubulin antibodies, respectively. In agreement with the previously reported results, IKK-α was localized in both the nucleus and the cytoplasm, whereas IKK-β was largely expressed in the cytoplasm (FIG. 4). The amounts of IKK-α, IKK-β, and IKK-γ in the cytoplasm were not changed regardless of cisplatin treatment.

[6] = system: NF-κB; assay: NF-κB reporter activation in L929 cells; format: cell-based, mouse; details: L929 cells (FIG. 8)
Protocol: as §1

[7] = system: L929 cells; assay: Immunoblot of nuclear and cytoplasmic fractions of L929 cells; format: cell-based, mouse; details: L929 cells (FIG. 9)
Protocol: To prepare nuclear and cytoplasmic extracts, cells were washed with ice-cold PBS and suspended in lysis buffer (pH 7.5; which contained 10 mM Tris-Cl, 1 mM EDTA, 0.5% Nonidet P-40 (NP-40), 1 mM PMSF, and protease inhibitor mix (Sigma)). The suspended cells were incubated at 4° C. for 30 minutes and centrifuged at 5000 rpm for 10 minutes to collect soluble fractions (which were used as cytoplasmic extracts). Insoluble fractions were washed with lysis buffer and dissolved in 1×Laemmli SDS-sample buffer (pH 6.8; which contained 62.5 mM Tris-Cl, 2% SDS, 2% β-mercaptoethanol, and 0.01% bromophenol blue) to collect nuclear extracts. The nuclear and cytoplasmic fractions were subjected to immunoblot analysis using an anti-lamin B monoclonal (Ab-1; Oncogene Research Products) or anti-α-tubulin monoclonal (DM1A; Cell Signaling Technology) antibody.
as §1

Row | Compound | expression of IKK-α and IKK-β mRNAs ([1]; cisplatin 20 μM (FIG. 3)) | expression of p53 and p73α mRNAs ([1]; cisplatin 20 μM (FIG. 3)) | expression level of IKK-γ mRNA ([1]; cisplatin 20 μM, time-dependent (FIG. 3)) | IKK-α protein level ([2]; 12 to 36 hours after cisplatin exposure (FIG. 2)) | IKK-γ (NEMO) protein level ([2]; after 12 hours of cisplatin treatment) | p53 and p73α protein levels ([2]; cisplatin exposure (FIG. 2)) | amount of IKK-β ([2]; cisplatin treatment) | phosphorylated form of IκB-α ([2]; cisplatin treatment) | NF-κB-dependent transcriptional activation [3] | cell viability / apoptosis of U2OS cells [4] | cytoplasmic IκB-α ([5]; U2OS cytoplasmic fraction (FIG. 4)) | nuclear accumulation of IKK-α ([5]; U2OS nuclear fraction (FIG. 4)) | nuclear accumulation of p65-NF-κB subunit (RelA) ([5]; U2OS nuclear fraction (FIG. 4)) | NF-κB-dependent transcriptional activation [6] | nuclear accumulation of p65 [7]
1 | N.N.[Cl][Pt][Cl] [cisplatin] | not changed | not induced | remarkable increase | remarkably accumulated IKK-α | transiently increased | remarkably induced at protein levels | hardly changed the amount of IKK-β | remarkably increased the phosphorylated form of IκB-α | did not enhance NF-κB-dependent transcriptional activation | underwent apoptosis in a time-dependent manner | decreased in a time-dependent manner | remarkably accumulated IKK-α in the nucleus in a time-dependent manner | almost no effect on the nuclear accumulation of p65-NF-κB subunit | – | –
2 | TNF-α | – | – | – | – | – | – | – | – | – | – | – | – | – | NF-κB-dependent transcriptional activation was observed after 2 hours | remarkably accumulated p65 in the nucleus
